Results published in patent publication US12403132B2, “Methods of treating bone marrow failure syndromes and compositions for use in the same” (The Board of Trustees of the Leland Stanford Junior …, priority 2020, dated 2025).

What was measured:
S6K = S6K phosphorylation in differentiating RPS19-insufficient CD34+ progenitors; assay type: cell-based, human; conditions: 5 μM, differentiating RPS19-insufficient cells
Protocol: FIG. 5. NLK-mediated phosphorylation of raptor leads to reduced mTOR activity and increased autophagy. (a) Fetal liver CD34+ progenitors were transduced with controls or shRPS19 and differentiated for 5 days in the presence or absence of 5 μM BI-D1870 (RSK inhibitor). Samples were lysed and normalized for protein abundance before being subjected to immunoprecipitation of NLK, raptor, S6K and 4E-BP1. Immunoprecipitated NLK was utilized to examine NLK activity (a—top panel—Orange, blue and green depict NLK, Myb and raptor phosphorylation respectively), while raptor, S6K and 4E-BP1 were subjected to western blotting for phosphorylated serine/threonine residues (bottom panels). In parallel, lysates were probed for total raptor, S6K, 4E-BP1, NLK and GAPDH (bottom panels) by Western blotting. […] (d) Cells treated as above were plated in 96 wells and absorbance measured at a wavelength of 520 nm. […] After imagining, 100 cells per group were analyzed and the number of intense fluorescent puncta per cell was scored (lower panels).
Raptor is the regulatory component of the mTOR Complex 1 and a substrate of NLK in osmotic and oxidative stress. […] We determined immuno-purified NLK from human and murine RPS19- and RPL11-insufficient progenitors, as well as derived from DBA patients can phosphorylate raptor in vitro (FIGS. 1-4). […]

NLK = target: T1, NLK (Homo sapiens, UniProt Q9UBE8); test: NLK inhibition by OTS167 in DBA models
T1 sequence (Q9UBE8 1-527): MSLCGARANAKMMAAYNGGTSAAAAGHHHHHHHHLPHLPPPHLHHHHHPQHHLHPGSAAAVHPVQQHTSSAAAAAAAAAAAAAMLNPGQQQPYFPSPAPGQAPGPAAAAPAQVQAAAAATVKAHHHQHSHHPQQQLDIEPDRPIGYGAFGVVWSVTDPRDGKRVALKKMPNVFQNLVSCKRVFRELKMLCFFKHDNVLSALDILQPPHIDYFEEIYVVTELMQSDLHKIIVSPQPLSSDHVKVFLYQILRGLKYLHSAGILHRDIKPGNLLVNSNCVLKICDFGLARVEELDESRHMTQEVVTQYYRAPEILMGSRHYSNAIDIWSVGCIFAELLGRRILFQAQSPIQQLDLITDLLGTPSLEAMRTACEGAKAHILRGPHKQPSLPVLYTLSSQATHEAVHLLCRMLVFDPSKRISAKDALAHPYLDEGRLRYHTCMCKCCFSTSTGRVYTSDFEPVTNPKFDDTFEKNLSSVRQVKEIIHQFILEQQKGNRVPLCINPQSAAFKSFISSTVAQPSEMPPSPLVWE
From the text: (§1) IV. Nemo-like kinase (NLK) is hyperactivated in red cell precursors in the bone marrow of patients with DBA. Inhibition of NLK by knockdown or chemical compounds in our in vitro DBA models results in improvement of red cell production. Regardless of the underlying genetic mutation causing DBA, NLK is hyperactivated. […] Our goal is to next test OTS167 in mouse models of DBA. According to clinical trials.gov, OTS167 is currently in trials for AML, ALL, MDS, MPN, and CML, solid tumors, and breast cancer, but not DBA. This is the first example of a targeted therapy for all DBA patient regardless of the underlying mutations. Giving this drug would be easier and cheaper than gene editing to correct the gene defect.

red cell production = test: Red cell production in in vitro DBA models; assay type: cell-based
From the text: as §1

normal bone marrow cells = test: Toxicity to normal bone marrow cells; assay type: cell-based; conditions: in vitro
From the text: as §1

Row | inhibition of NLK (NLK) | SMILES | S6K phosphorylation (S6K) | red cell production in vitro (red cell production) | toxicity to normal bone marrow cells (normal bone marrow cells)
1 | – | CC(C)CCN1c2nc(Nc3cc(F)c(O)c(F)c3)ncc2N(C)C(=O)C1C (stereo not shown) [BI-D1870] | reduced to below basal levels | – | –
2 | inhibit NLK | CC(=O)c1cnc2ccc(-c3cc(Cl)c(O)c(Cl)c3)nc2c1N[C@H]1CC[C@H](CN(C)C)CC1 [OTS167] | – | improves red cell production | without toxicity
